# Like-named read-outs stand apart in the source and are kept apart here.
# Assays:
# μOR [1] = biological target: T1, μOR (Homo sapiens, UniProt P35372); assay: cell-based; format: cell-based
# C57BL/6J mice [2] = settings: mouse, in vivo
# μOR [3] = biological target: T1, μOR; assay: cell-based; format: cell-based; settings: for Emax: read-out: β-arr1 Emax % ± SEM
# μOR [4] = biological target: T1, μOR; assay: cell-based; format: cell-based; remark: listed apart in the source
# mouse [5] = settings: in vivo
# C57BL/6J mice [6] = settings: mouse, in vivo; remark: listed apart in the source
# mouse [7] = settings: in vivo; remark: listed apart in the source
# C57BL/6J mice [8] = settings: mouse, in vivo; remark: listed apart in the source
# mouse [9] = settings: in vivo; remark: listed apart in the source
# T1 sequence (P35372 whole entry): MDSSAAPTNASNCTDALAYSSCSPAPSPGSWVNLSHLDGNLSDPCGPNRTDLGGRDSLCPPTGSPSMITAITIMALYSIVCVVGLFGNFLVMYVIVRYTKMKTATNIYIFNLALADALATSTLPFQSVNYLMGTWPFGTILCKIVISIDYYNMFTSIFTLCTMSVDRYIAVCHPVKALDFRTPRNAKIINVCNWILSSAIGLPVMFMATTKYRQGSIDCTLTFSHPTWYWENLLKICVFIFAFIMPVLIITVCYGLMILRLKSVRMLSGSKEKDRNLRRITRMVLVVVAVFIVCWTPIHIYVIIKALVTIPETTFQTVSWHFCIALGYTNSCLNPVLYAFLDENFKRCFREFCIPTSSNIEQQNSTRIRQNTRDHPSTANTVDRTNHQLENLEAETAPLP
Compound,Gz Emax % ± SEM (μOR [1]),"β-arrestin-1 recruitment, maximum value (μOR [3]) [%]","β-arrestin-1 recruitment, median value (μOR [3]) [%]","β-arrestin-1 recruitment, minimum value (μOR [3]) [%]","β-arrestin-2 recruitment, maximum value (μOR [4]) [%]","β-arrestin-2 recruitment, median value (μOR [4]) [%]","β-arrestin-2 recruitment, minimum value (μOR [4]) [%]",Emax (μOR [1]; read-out: G0a Emax % ± SEM) [%],Emax (μOR [1]; read-out: G0b Emax % ± SEM) [%],Emax (μOR [1]; read-out: Gi1 Emax % ± SEM) [%],Emax (μOR [1]; read-out: Gi2 Emax % ± SEM) [%],Emax (μOR [1]; read-out: Gi3 Emax % ± SEM) [%],Emax (μOR [1]; read-out: Gz Emax % ± SEM) [%],β-arr2 Emax % ± SEM (μOR [4]) [%],Emax (μOR [3]) [%],further results
"CC[C@@H]1CN2CC[C@@]3(O)C(=Nc4cccc(OC)c43)[C@@H]2C[C@@H]1/C(=C\OC)C(=O)OC [7-OH, 7-hydroxymitragynine]",73 ± 2.8%,0.3,−1.4,−8.0,25.2,−2.4,−13.1,,,,,,,,,G0a Emax % ± SEM (μOR [1]): 65 ± 4.9%; G0b Emax % ± SEM (μOR [1]): 56 ± 3.5%; Gi1 Emax % ± SEM (μOR [1]): 31 ± 4.9%; Gi2 Emax % ± SEM (μOR [1]): 53 ± 5.1%; Respiratory effect (C57BL/6J mice [2]; sc): respiratory depression similar to that caused by morphine
CN1CC[C@]23c4c5ccc(O)c4O[C@H]2[C@@H](O)C=C[C@H]3[C@H]1C5 [Morphine],,,,,,,,,,,,,,,,"Antinociception in writhing assay (mouse [5]): significant antinociception compared with vehicle or saline; Number of writhes over 15 min, maximum (mouse [5]): 32; Number of writhes over 15 min, median (mouse [5]): 0; Number of writhes over 15 min, minimum (mouse [5]): 0; Breath rates (C57BL/6J mice [2]): decrease; Ambulations (locomotor effect) (C57BL/6J mice [6]): hyperlocomotion; Antinociception in formalin assay (mouse [7]): significant antinociception compared with vehicle or saline; Formalin assay response, maximum (mouse [7]): 95 s; Formalin assay response, median (mouse [7]): 7 s; Formalin assay response, minimum (mouse [7]): 1 s; ED50 95% confidence interval (C57BL/6J mice [8]): 4.4 to 8.43 nmol; Median antinociceptive dose (ED50) (C57BL/6J mice [8]): 6.6 nmol; Post-conditioning (post-CPP), maximum (mouse [9]): 819 s; Post-conditioning (post-CPP), median (mouse [9]): 154 s; Post-conditioning (post-CPP), minimum (mouse [9]): -299 s; Pre-conditioning (pre-CPP) difference in time on drug-paired side, minimum (mouse [9]): -542 s; Pre-conditioning (pre-CPP), maximum (mouse [9]): 413 s; Pre-conditioning (pre-CPP), median (mouse [9]): -23 s"
COc1ccsc1CNCC[C@@]1(c2ccccn2)CCOC2(CCCC2)C1 [TRV130],,,,,,,,67 ± 5.3,76 ± 4.4,58 ± 3.8,58 ± 4.2,45 ± 3.3,98 ± 2.2,26 ± 5.9,,
C[C@@H](NC(=O)[C@@H](N)Cc1ccc(O)cc1)C(=O)NCC(=O)N(C)[C@@H](Cc1ccccc1)C(=O)NCCO [DAMGO],,100,100,100,100,100,100,,,,,,,,,
COc1ccc2c3c1O[C@H]1C(=O)CC[C@@]4(O)[C@@H](C2)N(C)CC[C@]314 [Oxycodone],full agonist,,,,,,,102 ± 5.2,110 ± 3.4,,83 ± 5.7,75 ± 3.8,102 ± 4.9,80 ± 3.9,81 ± 7.9,
CC(C)=CCN1CCC2(C)c3cc(O)ccc3CC1C2C (stereo not drawn) [Pentazocine],full agonist,,,,,,,89 ± 4,89 ± 3.2,75 ± 1.8,78 ± 3.8,73 ± 2.3,103 ± 1.5,,7 ± 4.51,Emax (μOR [4]; read-out: β-arr2 Emax % ± SEM): 13 ± 4.04%
